Test results: publication PMC4519859, “Synthesis and Biological Evaluation of Novel Dehydroabietic Acid Derivatives Conjugated with Acyl-Thiourea Peptide Moiety as Antitumor Agents” (International Journal of Molecular Sciences, 2015)

How the values were obtained:
Format in all cases: cell-based
HeLa = test: MTT cytotoxicity assay, HeLa; settings: Homo sapiens, 48 h, mean ± SD, three independent experiments
Description: (§1) The in vitro cytotoxic potency of DHAA acyl-thiourea derivatives 8a–8o and 9a–9o were evaluated by 3-(4,5-dimethylthiazol-2-yl)-2,5-diphenyltetrazolium bromide (MTT) assay against HeLa, SK-OV-3 and MGC-803 tumor cell lines, with 5-FU as the positive control.
(§2) General procedure for cytotoxic evaluation in vitro: HeLa, HepG2, SK-OV-3 and MGC-803 cells were seeded into 96-well microculture plates and allowed to adhere for 24 h, respectively. After cells were exposed to compounds at concentrations from 100 to 0.01 μM for 48 h, medium was aspirated and replenished with complete medium. IC50 was evaluated by MTT tetrazolium dye assay. Each experiment was performed three times; Statistical analysis: All statistical analysis was performed with SPSS Version 10 (SPSS, Chicago, IL, USA). Data was analyzed by one-way ANOVA. Mean separations were performed using the least significant difference method. Each experiment was replicated thrice, and all experiments yielded similar results. Measurements from all the replicates were combined, and treatment effects were analyzed.

SK-OV-3 = test: MTT cytotoxicity assay, SK-OV-3; settings: Homo sapiens, 48 h, mean ± SD, three independent experiments
Description: as §1, §2

MGC-803 = test: MTT cytotoxicity assay, MGC-803; settings: Homo sapiens, 48 h, mean ± SD, three independent experiments
Description: as §1, §2

HL-7702 = test: MTT cytotoxicity assay, HL-7702 normal cells; settings: L02, 48 h, normal human cells, mean ± SD, three independent experiments
Description: [The source words this procedure for another cell line and reports this cell line under the same test.] as §1, §2

Row | Compound | IC50 (HeLa) | IC50 (SK-OV-3) | IC50 (MGC-803) | IC50 (HL-7702)
1 | Cc1ccc(NC(=O)[C@@H](C)NC(=S)NC(=O)[C@]2(C)CCC[C@]3(C)c4ccc(C(C)C)cc4CCC23)cc1 (stereo partly drawn) [Compound 8c, (1R,4aS)-7-Isopropyl-1,4a-dimethyl-N-(((R)-1-oxo-1-(p-tolylamino)propan-2-yl)carbamothioyl)-1,2,3,4,4a,9,10,10a-octahydrophenanthrene-1-carboxamide] | 38.7 ± 3.65 µM | 50.9 ± 4.11 µM | 24.9 ± 1.64 µM | 61.7 ± 3.41 µM
2 | COc1cc(NC(=O)[C@@H](Cc2ccccc2)NC(=S)NC(=O)[C@]2(C)CCC[C@]3(C)c4ccc(C(C)C)cc4CCC23)cc(OC)c1OC (stereo partly drawn) [Compound 9o, (1R,4aS)-7-Isopropyl-1,4a-dimethyl-N-(((R)-1-oxo-3-phenyl-1-((3,4,5-trimethoxyphenyl)amino)propan-2-yl)carbamothioyl)-1,2,3,4,4a,9,10,10a-octahydrophenanthrene-1-carboxamide] | 17.5 ± 1.54 µM | 29.3 ± 2.04 µM | 29.3 ± 2.09 µM | 59.3 ± 2.54 µM
3 | CC(C)c1ccc2c(c1)CCC1[C@](C)(C(=O)NC(=S)N[C@H](Cc3ccccc3)C(=O)Nc3ccc(Br)cc3)CCC[C@]21C (stereo partly drawn) [Compound 9k, (1R,4aS)-N-(((R)-1-((4-Bromophenyl)amino)-1-oxo-3-phenylpropan-2-yl)carbamothioyl)-7-isopropyl-1,4a-dimethyl-1,2,3,4,4a,9,10,10a-octahydrophenanthrene-1-carboxamide] | 15.7 ± 1.13 µM | 46.7 ± 4.76 µM | 25.5 ± 2.47 µM | 66.5 ± 4.48 µM
4 | COc1ccc(NC(=O)[C@@H](Cc2ccccc2)NC(=S)NC(=O)[C@]2(C)CCC[C@]3(C)c4ccc(C(C)C)cc4CCC23)cc1 (stereo partly drawn) [Compound 9g, (1R,4aS)-7-Isopropyl-N-(((R)-1-((4-methoxyphenyl)amino)-1-oxo-3-phenylpropan-2-yl)carbamothioyl)-1,4a-dimethyl-1,2,3,4,4a,9,10,10a-octahydrophenanthrene-1-carboxamide] | 15.6 ± 1.53 µM | 20.1 ± 1.78 µM | 26.1 ± 2.63 µM | 41.1 ± 1.32 µM
5 | COc1cc(NC(=O)[C@@H](C)NC(=S)NC(=O)[C@]2(C)CCC[C@]3(C)c4ccc(C(C)C)cc4CCC23)cc(OC)c1OC (stereo partly drawn) [Compound 8o, (1R,4aS)-7-Isopropyl-1,4a-dimethyl-N-(((R)-1-oxo-1-((3,4,5-trimethoxyphenyl)amino)propan-2-yl)carbamothioyl)-1,2,3,4,4a,9,10,10a-octahydrophenanthrene-1-carboxamide] | 18.1 ± 1.23 µM | 29.6 ± 2.67 µM | 22.7 ± 1.77 µM | 49.2 ± 2.65 µM
6 | O=c1[nH]cc(F)c(=O)[nH]1 [Compound 5-FU, 5-fluorouracil, reference compound] | 36.6 ± 1.55 µM | 30.2 ± 1.13 µM | 34.9 ± 1.75 µM | 
7 | Cc1ccccc1NC(=O)[C@@H](C)NC(=S)NC(=O)[C@]1(C)CCC[C@]2(C)c3ccc(C(C)C)cc3CCC12 (stereo partly drawn) [Compound 8b, (1R,4aS)-7-Isopropyl-1,4a-dimethyl-N-(((R)-1-oxo-1-(o-tolylamino)propan-2-yl)carbamothioyl)-1,2,3,4,4a,9,10,10a-octahydrophenanthrene-1-carboxamide] | 29.2 ± 2.43 µM | 42.8 ± 1.42 µM | 19.2 ± 1.66 µM | 52.5 ± 1.25 µM
8 | Cc1ccc(NC(=O)[C@@H](Cc2ccccc2)NC(=S)NC(=O)[C@]2(C)CCC[C@]3(C)c4ccc(C(C)C)cc4CCC23)cc1 (stereo partly drawn) [Compound 9c, (1R,4aS)-7-Isopropyl-1,4a-dimethyl-N-(((R)-1-oxo-3-phenyl-1-(p-tolylamino)propan-2-yl)carbamothioyl)-1,2,3,4,4a,9,10,10a-octahydrophenanthrene-1-carboxamide] | 19.1 ± 1.08 µM | 16.2 ± 1.98 µM | 19.2 ± 1.66 µM | 36.2 ± 1.39 µM
9 | Cc1cc(C)cc(NC(=O)[C@@H](Cc2ccccc2)NC(=S)NC(=O)[C@]2(C)CCC[C@]3(C)c4ccc(C(C)C)cc4CCC23)c1 (stereo partly drawn) [Compound 9l, (1R,4aS)-N-(((R)-1-((3,5-Dimethylphenyl)amino)-1-oxo-3-phenylpropan-2-yl)carbamothioyl)-7-isopropyl-1,4a-dimethyl-1,2,3,4,4a,9,10,10a-octahydrophenanthrene-1-carboxamide] | 15.8 ± 1.55 µM | 31.5 ± 2.23 µM | 18.1 µM | 53.4 ± 2.24 µM
10 | Cc1cc(C)cc(NC(=O)[C@@H](C)NC(=S)NC(=O)[C@]2(C)CCC[C@]3(C)c4ccc(C(C)C)cc4CCC23)c1 (stereo partly drawn) [Compound 8l, (1R,4aS)-N-(((R)-1-((3,5-Dimethylphenyl)amino)-1-oxopropan-2-yl)carbamothioyl)-7-isopropyl-1,4a-dimethyl-1,2,3,4,4a,9,10,10a-octahydrophenanthrene-1-carboxamide] | 18.6 ± 1.24 µM | 33 ± 2.59 µM | 13.9 ± 1.32 µM | 55.3 ± 2.65 µM
11 | CC(C)c1ccc2c(c1)CCC1[C@](C)(C(=O)NC(=S)N[C@H](C)C(=O)Nc3ccc(Cl)cc3)CCC[C@]21C (stereo partly drawn) [Compound 8e, (1R,4aS)-N-(((R)-1-((4-Chlorophenyl)amino)-1-oxopropan-2-yl)carbamothioyl)-7-isopropyl-1,4a-dimethyl-1,2,3,4,4a,9,10,10a-octahydrophenanthrene-1-carboxamide] | 36.1 ± 3.31 µM | 36.1 ± 3.28 µM | 21.7 ± 1.69 µM | 57.7 ± 3.66 µM
12 | CC(C)c1ccc2c(c1)CCC1[C@](C)(C(=O)NC(=S)N[C@H](C)C(=O)Nc3ccccc3F)CCC[C@]21C (stereo partly drawn) [Compound 8h, (1R,4aS)-N-(((R)-1-((2-Fluorophenyl)amino)-1-oxopropan-2-yl)carbamothioyl)-7-isopropyl-1,4a-dimethyl-1,2,3,4,4a,9,10,10a-octahydrophenanthrene-1-carboxamide] | 23.3 ± 1.55 µM | 31.8 ± 2.36 µM | 26.1 ± 2.37 µM | 53.5 ± 2.35 µM
13 | CC(C)c1ccc2c(c1)CCC1[C@](C)(C(=O)NC(=S)N[C@H](C)C(=O)Nc3ccccc3Br)CCC[C@]21C (stereo partly drawn) [Compound 8j, (1R,4aS)-N-(((R)-1-((2-Bromophenyl)amino)-1-oxopropan-2-yl)carbamothioyl)-7-isopropyl-1,4a-dimethyl-1,2,3,4,4a,9,10,10a-octahydrophenanthrene-1-carboxamide] | 22.8 ± 1.55 µM | 39.1 ± 3.56 µM | 27.9 ± 3.26 µM | 59.6 ± 3.54 µM
14 | CC(C)c1ccc2c(c1)CCC1[C@](C)(C(=O)NC(=S)N[C@H](C)C(=O)Nc3ccc(F)cc3)CCC[C@]21C (stereo partly drawn) [Compound 8i, (1R,4aS)-N-(((R)-1-((4-Fluorophenyl)amino)-1-oxopropan-2-yl)carbamothioyl)-7-isopropyl-1,4a-dimethyl-1,2,3,4,4a,9,10,10a-octahydrophenanthrene-1-carboxamide] | 30.2 ± 2.55 µM | 32.5 ± 2.64 µM | 29.4 ± 2.77 µM | 54.5 ± 2.34 µM
15 | CC(C)c1ccc2c(c1)CCC1[C@](C)(C(=O)NC(=S)N[C@H](Cc3ccccc3)C(=O)Nc3ccc(F)cc3)CCC[C@]21C (stereo partly drawn) [Compound 9i, (1R,4aS)-N-(((R)-1-((4-Fluorophenyl)amino)-1-oxo-3-phenylpropan-2-yl)carbamothioyl)-7-isopropyl-1,4a-dimethyl-1,2,3,4,4a,9,10,10a-octahydrophenanthrene-1-carboxamide] | 23.7 ± 1.01 µM | 26.5 ± 2.07 µM | 21.4 ± 1.88 µM | 46.4 ± 2.44 µM
16 | CC(C)c1ccc2c(c1)CCC1[C@](C)(C(=O)NC(=S)N[C@H](Cc3ccccc3)C(=O)Nc3ccccc3Br)CCC[C@]21C (stereo partly drawn) [Compound 9j, (1R,4aS)-N-(((R)-1-((2-Bromophenyl)amino)-1-oxo-3-phenylpropan-2-yl)carbamothioyl)-7-isopropyl-1,4a-dimethyl-1,2,3,4,4a,9,10,10a-octahydrophenanthrene-1-carboxamide] | 12.7 ± 1.03 µM | 40.3 ± 3.41 µM | 21.3 ± 1.27 µM | 60.5 ± 3.43 µM
17 | CC(C)c1ccc2c(c1)CC[C@H]1[C@](C)(C(=O)O)CCC[C@]21C [DHA, dehydroabietic acid] | 30.4 ± 3.45 µM | 87.5 ± 4.12 µM | > 100 µM | 
18 | CC(C)c1ccc2c(c1)CCC1[C@](C)(C(=O)NC(=S)N[C@H](Cc3ccccc3)C(=O)Nc3cccc4ccccc34)CCC[C@]21C (stereo partly drawn) [Compound 9m, (1R,4aS)-7-Isopropyl-1,4a-dimethyl-N-(((R)-1-(naphthalen-1-ylamino)-1-oxo-3-phenylpropan-2-yl)carbamothioyl)-1,2,3,4,4a,9,10,10a-octahydrophenanthrene-1-carboxamide] | 12.8 ± 1.2 µM | 15.3 ± 1.73 µM | 22.9 ± 1.66 µM | 35.6 ± 1.53 µM
19 | CC(C)c1ccc2c(c1)CCC1[C@](C)(C(=O)NC(=S)N[C@H](C)C(=O)Nc3ccc(Br)cc3)CCC[C@]21C (stereo partly drawn) [Compound 8k, (1R,4aS)-N-(((R)-1-((4-Bromophenyl)amino)-1-oxopropan-2-yl)carbamothioyl)-7-isopropyl-1,4a-dimethyl-1,2,3,4,4a,9,10,10a-octahydrophenanthrene-1-carboxamide] | 19 ± 1.46 µM | 40.8 ± 3.57 µM | 30 ± 1.24 µM | 54.6 ± 3.65 µM
20 | CC(C)c1ccc2c(c1)CCC1[C@](C)(C(=O)NC(=S)N[C@H](Cc3ccccc3)C(=O)Nc3ccccc3)CCC[C@]21C (stereo partly drawn) [Compound 9a, (1R,4aS)-7-Isopropyl-1,4a-dimethyl-N-(((R)-1-oxo-3-phenyl-1-(phenylamino)propan-2-yl)carbamothioyl)-1,2,3,4,4a,9,10,10a-octahydrophenanthrene-1-carboxamide] | 25.7 ± 2.23 µM | 17 ± 1.13 µM | 26.6 ± 3.25 µM | 37.5 ± 1.44 µM
